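Protocol summary: plate cells (96-well), add compound at 5 concentrations, incubate 48 h, interpolate endpoints linearly. GI50 = concentration required for 50% inhibition of growth.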 Active and inactive are the calls of the source. No stated cut-off is given here; in the data, active = GI50 up to about 1.1 µM and inactive = higher.
Legend:
Experiment in all cases: growth of human tumour cells (NCI), 48 h
[1] = system: M14
[2] = system: RXF 393
[3] = system: NCI-H226
[4] = system: OVCAR-4
[5] = system: U-251
[6] = system: Hs-578T
[7] = system: OVCAR-3
[8] = system: K562
[9] = system: MDA-MB-231
[10] = system: UACC-62
[11] = system: RPMI-8226
[12] = system: UO-31
[13] = system: Malme-3M
[14] = system: OVCAR-5
[15] = system: OVCAR-8
[16] = system: T47D
[17] = system: 786-0
[18] = system: MOLT-4
[19] = system: KM12
[20] = system: HL-60
[21] = system: NCI-H460
[22] = system: HCT-15
[23] = system: SN12C
[24] = system: UACC-257
[25] = system: SK-MEL-5
[26] = system: SK-MEL-28
[27] = system: SF-268
[28] = system: NCI/ADR-RES
[29] = system: SW-620
[30] = system: MDA-MB-435
[31] = system: HT-29
[32] = system: HCT-116
[33] = system: HOP-62
[34] = system: CAKI-1
[35] = system: SF-295
[36] = system: TK-10
[37] = system: IGROV-1
[38] = system: NCI-H522
[39] = system: NCI-H23
[40] = system: A498
[41] = system: ACHN
[42] = system: SK-MEL-2
[43] = system: SK-OV-3
[44] = system: SNB-19
[45] = system: PC-3
[46] = system: DU-145
[47] = system: SNB-75
[48] = system: HOP-92
[49] = system: COLO 205
[50] = system: A549
[51] = system: MCF7
[52] = system: SF-539
[53] = system: HCC 2998
[54] = system: SR
[55] = system: LOX IMVI
[56] = system: MDA-N
[57] = system: EKVX
[58] = system: CCRF-CEM

## N=C(CSSCC(=N)NCC12CC3CC(CC(C3)C1)C2)NCC12CC3CC(CC(C3)C1)C2
[1]
  GI50: 18.2 µM (inactive)
[2]
  GI50: > 100 µM (inactive)
[3]
  GI50: 20.9 µM (inactive)
[4]
  GI50: 14.4 µM (inactive)
[5]
  GI50: 14.3 µM (inactive)
[6]
  GI50: 23.4 µM (inactive)
[7]
  GI50: 16.1 µM (inactive)
[8]
  GI50: 11.4 µM (inactive)
[9]
  GI50: 2.12 µM (inactive)
[10]
  GI50: 13.3 µM (inactive)
[11]
  GI50: 2.33 µM (inactive)
[12]
  GI50: 18.2 µM (inactive)
[13]
  GI50: 16.8 µM (inactive)
[14]
  GI50: 17.7 µM (inactive)
[15]
  GI50: 18 µM (inactive)
[16]
  GI50: 17.9 µM (inactive)
[17]
  GI50: 29.9 µM (inactive)
[18]
  GI50: 3.1 µM (inactive)
[19]
  GI50: 14.1 µM (inactive)
[20]
  GI50: 11 µM (inactive)
[21]
  GI50: 29.2 µM (inactive)
[22]
  GI50: 12.2 µM
[23]
  GI50: 15.7 µM (inactive)
[24]
  GI50: 14.6 µM (inactive)
[25]
  GI50: 20.2 µM (inactive)
[26]
  GI50: 20.7 µM (inactive)
[27]
  GI50: 37.7 µM (inactive)
[28]
  GI50: 17.1 µM (inactive)
[29]
  GI50: 17.5 µM (inactive)
[30]
  GI50: 13.8 µM (inactive)
[31]
  GI50: 13.6 µM (inactive)
[32]
  GI50: 22.4 µM (inactive)
[33]
  GI50: 32.1 µM (inactive)
[34]
  GI50: 18.7 µM (inactive)
[35]
  GI50: 14.2 µM (inactive)
[36]
  GI50: 18.8 µM (inactive)
[37]
  GI50: 15.9 µM (inactive)
[38]
  GI50: 15.1 µM (inactive)
[39]
  GI50: 16 µM (inactive)
[40]
  GI50: 25.5 µM (inactive)
[41]
  GI50: 13.3 µM (inactive)
[42]
  GI50: 22.3 µM (inactive)
[43]
  GI50: 17 µM (inactive)
[44]
  GI50: 19.2 µM (inactive)
[45]
  GI50: 14.9 µM (inactive)
[46]
  GI50: 16.9 µM (inactive)
[47]
  GI50: 20.8 µM (inactive)
[48]
  GI50: 16.3 µM (inactive)
[49]
  GI50: 19.2 µM (inactive)
[50]
  GI50: 13.7 µM (inactive)
[51]
  GI50: 29.7 µM (inactive)
[52]
  GI50: 17.7 µM (inactive)

## Cc1c(C)c2ccc(OCC(O)COC(C)C)c(C)c2oc1=O (stereo not given)
[1]
  GI50: 20.8 µM (inactive)
[4]
  GI50: > 10 µM (inactive)
[5]
  GI50: 16.2 µM (inactive)
[6]
  GI50: 31.7 µM (inactive)
[7]
  GI50: > 100 µM (inactive)
[53]
  GI50: 24.8 µM (inactive)
[8]
  GI50: 25.4 µM (inactive)
[10]
  GI50: 38.5 µM (inactive)
[11]
  GI50: 21.4 µM (inactive)
[12]
  GI50: 41.8 µM (inactive)
[13]
  GI50: 16.2 µM (inactive)
[14]
  GI50: 39.1 µM (inactive)
[15]
  GI50: 28.2 µM (inactive)
[16]
  GI50: > 100 µM (inactive)
[54]
  GI50: 26.7 µM (inactive)
[17]
  GI50: > 10 µM (inactive)
[18]
  GI50: > 10 µM (inactive)
[19]
  GI50: 56.1 µM (inactive)
[20]
  GI50: 35 µM (inactive)
[21]
  GI50: 16.7 µM (inactive)
[24]
  GI50: 19.8 µM (inactive)
[25]
  GI50: 16.4 µM (inactive)
[26]
  GI50: 34 µM (inactive)
[27]
  GI50: > 100 µM (inactive)
[28]
  GI50: 41.5 µM (inactive)
[29]
  GI50: 29.4 µM (inactive)
[55]
  GI50: 18.7 µM (inactive)
[31]
  GI50: 31 µM (inactive)
[32]
  GI50: 18.5 µM (inactive)
[33]
  GI50: 28.7 µM (inactive)
[34]
  GI50: 41.7 µM (inactive)
[35]
  GI50: 23.5 µM (inactive)
[56]
  GI50: 17.7 µM (inactive)
[36]
  GI50: 25.1 µM (inactive)
[37]
  GI50: 70.6 µM (inactive)
[38]
  GI50: 17.2 µM (inactive)
[39]
  GI50: 91.6 µM (inactive)
[41]
  GI50: 44.3 µM (inactive)
[42]
  GI50: 20.1 µM (inactive)
[43]
  GI50: > 100 µM (inactive)
[44]
  GI50: 57.5 µM (inactive)
[45]
  GI50: 45.2 µM (inactive)
[46]
  GI50: > 100 µM (inactive)
[57]
  GI50: 45.5 µM (inactive)
[48]
  GI50: 33.2 µM (inactive)
[49]
  GI50: > 10 µM (inactive)
[50]
  GI50: 34.7 µM (inactive)
[51]
  GI50: 24.4 µM (inactive)
[58]
  GI50: 27.5 µM (inactive)

## O=c1c2cc(Br)ccc2ncn1COCc1ccccc1
[1]
  GI50: 97.7 µM (inactive)
[2]
  GI50: 51.5 µM (inactive)
[4]
  GI50: > 100 µM (inactive)
[5]
  GI50: > 100 µM (inactive)
[7]
  GI50: > 100 µM (inactive)
[53]
  GI50: > 100 µM (inactive)
[8]
  GI50: 54.6 µM (inactive)
[10]
  GI50: 80.5 µM (inactive)
[12]
  GI50: 24.1 µM (inactive)
[14]
  GI50: > 100 µM (inactive)
[54]
  GI50: 56.5 µM (inactive)
[17]
  GI50: 70.3 µM (inactive)
[18]
  GI50: 42.8 µM (inactive)
[19]
  GI50: 52.6 µM (inactive)
[20]
  GI50: > 10 µM (inactive)
[22]
  GI50: 64 µM
[24]
  GI50: > 100 µM (inactive)
[25]
  GI50: 31 µM (inactive)
[26]
  GI50: > 100 µM (inactive)
[29]
  GI50: > 100 µM (inactive)
[55]
  GI50: 38.7 µM (inactive)
[30]
  GI50: > 100 µM (inactive)
[32]
  GI50: 61.8 µM (inactive)
[35]
  GI50: > 100 µM (inactive)
[36]
  GI50: 96.6 µM (inactive)
[37]
  GI50: 56.2 µM (inactive)
[40]
  GI50: > 100 µM (inactive)
[41]
  GI50: 23.8 µM (inactive)
[42]
  GI50: > 100 µM (inactive)
[43]
  GI50: > 100 µM (inactive)
[44]
  GI50: 45.6 µM (inactive)
[46]
  GI50: > 100 µM (inactive)
[57]
  GI50: 88.3 µM (inactive)
[48]
  GI50: > 100 µM (inactive)
[49]
  GI50: 93.8 µM (inactive)
[50]
  GI50: 52.1 µM (inactive)
[51]
  GI50: 37.1 µM (inactive)
[58]
  GI50: 71 µM (inactive)
[52]
  GI50: > 100 µM (inactive)
